Results: patent publication US6399088B1, “Citric acid tri-alkylamide surfactants” (Air Products and Chemicals, Inc., priority 2000, dated 2002)
Marks after values point to notes of the source that are not given here.

Columns and labels:
Format in all cases: physicochemical
[1] = Solubility limit in water
Protocol: (§1) The solubility limits of Examples 6 and 7 were determined by intersection of the linear portion of a surface tension/In (concentration) curve with the limiting surface tension as is described in many textbooks. Since Example 8 contained insoluble material at 0.005 wt %, the solubility limit is reported as <0.005 wt %. Also, the solubility limit of ˜10 wt % reported for Example 1 is the lowest concentration at which a significant amount of insoluble material was seen. The relative efficiency of surfactants can be obtained by comparing surface tension reduction of solutions containing the same amount of different surfactants. Such data is given for 0.1 wt % solutions of the tri-alkylcitramides at 1.0 and 6.0 b/s. The limiting surface tensions at 0.1, 1, 6 and 20 b/s represent the lowest surface tensions in water which can be achieved at the given surface creation rates for a given surfactant regardless of the amount of surfactant used and is used to evaluate the effectiveness of a surfactant. These values give information about the relative ability of a surfactant to reduce surface defects under near-equilibrium conditions (0.1 b/s) through very dynamic conditions (20 b/s). Lower surface tensions would allow the elimination of defects upon application of a formulation onto lower energy surfaces.

[2] = Dynamic surface tension of aqueous solutions, maximum-bubble pressure method; settings: for γ (0.1 wt % solution) (1 b/s) / γ (0.1 wt % solution) (6 b/s): 0.1 wt % solution in water
Protocol: Solutions of the citramides of Examples 1-4 in distilled water were prepared. Dynamic surface tension data were obtained using the maximum-bubble pressure method at bubble rates from 0.1 bubbles/second (b/s) to 20 b/s as described in Langmuir 1986, 2, 428-432. […] In practical terms, high bubble rates correspond to high printing speeds in lithographic printing, high spray or roller velocities in coating applications, rapid application rates for agricultural products and electronics cleaning and processing.
as §1

[3] = Foam test based upon ASTM D 1173-53; settings: 0.1 wt % solution; for initial foam: foam height at completion of addition
Protocol: The foaming properties of a 0.1 wt % solutions of the tri-alkylcitramides (N,N′,N″-tri-n-propylcitramide, N, N′, N″-tri-n-butylcitramide, N, N′, N″-tri-iso-butylcitramide and N,N′,N″-tri-iso-amylcitramide) were examined using a procedure based upon ASTM D 1173-53. In this test, a 0.1 wt % solution of the citramide surfactant was added from an elevated glass pipette to a receiver containing the same solution. The foam height was measured at the completion of the addition (“Initial Foam Height”) and the time required for the foam to dissipate at the air-liquid interface (“Time to 0 Foam”) was recorded. This test provided a comparison between the foaming characteristics of the various citramides. In general, in coatings, inks, adhesives, agricultural and electronics cleaning formulations, foam is undesirable because it complicates handling and can lead to coating and print defects, and to inefficient application of materials.

[4] = in water, from observed insoluble material
[5] = limiting surface tension in water, 0.1 bubbles/second
[6] = limiting surface tension in water, 1 bubble/second
[7] = limiting surface tension in water, 6 bubbles/second
[8] = limiting surface tension in water, 20 bubbles/second

Question: Which solubility limit ([1]; in distilled water) does the source give for CCCNC(=O)CC(O)(CC(=O)NCCC)C(=O)NCCC [Example 1, N,N′,N″-tri-n-propylcitramide] here?
Answer: ˜10 Weight %

Question: What about the solubility limit [1, 4] of the same compound?
Answer: ~10 wt %

Question: And the “γ (0.1 wt % solution) (1 b/s)” value ([2]; 1 b/s)?
Answer: 66.7 Dyne/cm

Question: What about the “γ (0.1 wt % solution) (6 b/s)” value ([2]; 6 b/s) of the same compound?
Answer: 67.2 Dyne/cm

Question: What about the “γ limiting (0.1 b/s)” value [2, 5] of the same compound?
Answer: 42.9 Dyne/cm

Question: What about the “γ limiting (1 b/s)” value [2, 6] of the same compound?
Answer: 43.1 Dyne/cm

Question: And the “γ limiting (6 b/s)” value [2, 7]?
Answer: 43.7 Dyne/cm

Question: And the “γ limiting (20 b/s)” value [2, 8]?
Answer: 44.9 Dyne/cm

Question: And the “time to zero foam” value [3]?
Answer: 10 s

Question: What about the initial foam [3] of the same compound?
Answer: 2.8 cm

Question: With CC(C)CNC(=O)CC(O)(CC(=O)NCC(C)C)C(=O)NCC(C)C [Example 3, N,N′,N″-tri-iso-butylcitramide] as the compound, how does the solubility limit ([1]; in distilled water) read?
Answer: 0.2 Weight %

Question: What about the “γ (0.1 wt % solution) (1 b/s)” value ([2]; 1 b/s) of the same compound?
Answer: 51.8 Dyne/cm

Question: And the “γ (0.1 wt % solution) (6 b/s)” value ([2]; 6 b/s)?
Answer: 52.5 Dyne/cm

Question: What about the “γ limiting (0.1 b/s)” value [2, 5] of the same compound?
Answer: 46.6 Dyne/cm

Question: What about the “γ limiting (1 b/s)” value [2, 6] of the same compound?
Answer: 46.8 Dyne/cm

Question: What about the “γ limiting (6 b/s)” value [2, 7] of the same compound?
Answer: 47.3 Dyne/cm

Question: What about the “γ limiting (20 b/s)” value [2, 8] of the same compound?
Answer: 48.4 Dyne/cm

Question: And the “time to zero foam” value [3]?
Answer: 10 s

Question: And the initial foam [3]?
Answer: 1.0 cm

Question: Which “relative solubility in water” value ([1]; in comparison to N,N′,N″-tri-iso-butylcitramide) does the source give for CCCCNC(=O)CC(O)(CC(=O)NCCCC)C(=O)NCCCC [Example 2, N,N′,N″-tri-n-butylcitramide] here?
Answer: more soluble

Question: What about the solubility limit ([1]; in distilled water) of the same compound?
Answer: 0.4 Weight %

Question: And the “γ (0.1 wt % solution) (1 b/s)” value ([2]; 1 b/s)?
Answer: 51.2 Dyne/cm

Question: What about the “γ (0.1 wt % solution) (6 b/s)” value ([2]; 6 b/s) of the same compound?
Answer: 52.6 Dyne/cm

Question: What about the “γ limiting (0.1 b/s)” value [2, 5] of the same compound?
Answer: 43.6 Dyne/cm

Question: What about the “γ limiting (1 b/s)” value [2, 6] of the same compound?
Answer: 43.9 Dyne/cm

Question: What about the “γ limiting (6 b/s)” value [2, 7] of the same compound?
Answer: 44.6 Dyne/cm

Question: What about the “γ limiting (20 b/s)” value [2, 8] of the same compound?
Answer: 46.2 Dyne/cm

Question: And the “time to zero foam” value [3]?
Answer: 9 s

Question: What about the initial foam [3] of the same compound?
Answer: 1.3 cm

Question: With CC(C)CCNC(=O)CC(O)(CC(=O)NCCC(C)C)C(=O)NCCC(C)C [Example 4, N,N′,N″-tri-iso-amylcitramide] as the compound, how does the solubility limit ([1]; in distilled water) read?
Answer: <0.005 Weight %

Question: What about the solubility limit [1, 4] of the same compound?
Answer: < 0.005 wt %

Question: What about the “γ (0.1 wt % solution) (1 b/s)” value ([2]; 1 b/s) of the same compound?
Answer: 63.3 Dyne/cm

Question: And the “γ (0.1 wt % solution) (6 b/s)” value ([2]; 6 b/s)?
Answer: 66.6 Dyne/cm

Question: And the “dynamic surface tension (0.1 b/s)” value ([2]; added to water at 5 wt %, material remained undissolved, 0.1 b/s)?
Answer: 45.7 dyne/cm

Question: What about the “dynamic surface tension (1 b/s)” value ([2]; added to water at 5 wt %, material remained undissolved, 1 b/s) of the same compound?
Answer: 45.9 dyne/cm

Question: And the “dynamic surface tension (6 b/s)” value ([2]; added to water at 5 wt %, material remained undissolved, 6 b/s)?
Answer: 46.4 dyne/cm

Question: What about the “dynamic surface tension (20 b/s)” value ([2]; added to water at 5 wt %, material remained undissolved, 20 b/s) of the same compound?
Answer: 47.4 dyne/cm

Question: And the “γ limiting (0.1 b/s)” value ([2]; limiting γ at 0.005 wt. % surfactant, 0.1 b/s)?
Answer: 51.6^c Dyne/cm

Question: And the “γ limiting (1 b/s)” value ([2]; limiting γ at 0.005 wt. % surfactant, 1 b/s)?
Answer: 62.6^c Dyne/cm

Question: And the “γ limiting (6 b/s)” value ([2]; limiting γ at 0.005 wt. % surfactant, 6 b/s)?
Answer: 67.0^c Dyne/cm

Question: And the “γ limiting (20 b/s)” value ([2]; limiting γ at 0.005 wt. % surfactant, 20 b/s)?
Answer: 71.4^c Dyne/cm

Question: What about the “time to zero foam” value [3] of the same compound?
Answer: 2 s

Question: What about the initial foam [3] of the same compound?
Answer: 1.3 cm
